This note sets out measurements from PMC5508980 (Molecular nutrition & food research, 2017).

For experiment [1], the target named is T1, recombinant HDAC7 (Homo sapiens, UniProt Q8WUI4).
T1 sequence (Q8WUI4 1-952): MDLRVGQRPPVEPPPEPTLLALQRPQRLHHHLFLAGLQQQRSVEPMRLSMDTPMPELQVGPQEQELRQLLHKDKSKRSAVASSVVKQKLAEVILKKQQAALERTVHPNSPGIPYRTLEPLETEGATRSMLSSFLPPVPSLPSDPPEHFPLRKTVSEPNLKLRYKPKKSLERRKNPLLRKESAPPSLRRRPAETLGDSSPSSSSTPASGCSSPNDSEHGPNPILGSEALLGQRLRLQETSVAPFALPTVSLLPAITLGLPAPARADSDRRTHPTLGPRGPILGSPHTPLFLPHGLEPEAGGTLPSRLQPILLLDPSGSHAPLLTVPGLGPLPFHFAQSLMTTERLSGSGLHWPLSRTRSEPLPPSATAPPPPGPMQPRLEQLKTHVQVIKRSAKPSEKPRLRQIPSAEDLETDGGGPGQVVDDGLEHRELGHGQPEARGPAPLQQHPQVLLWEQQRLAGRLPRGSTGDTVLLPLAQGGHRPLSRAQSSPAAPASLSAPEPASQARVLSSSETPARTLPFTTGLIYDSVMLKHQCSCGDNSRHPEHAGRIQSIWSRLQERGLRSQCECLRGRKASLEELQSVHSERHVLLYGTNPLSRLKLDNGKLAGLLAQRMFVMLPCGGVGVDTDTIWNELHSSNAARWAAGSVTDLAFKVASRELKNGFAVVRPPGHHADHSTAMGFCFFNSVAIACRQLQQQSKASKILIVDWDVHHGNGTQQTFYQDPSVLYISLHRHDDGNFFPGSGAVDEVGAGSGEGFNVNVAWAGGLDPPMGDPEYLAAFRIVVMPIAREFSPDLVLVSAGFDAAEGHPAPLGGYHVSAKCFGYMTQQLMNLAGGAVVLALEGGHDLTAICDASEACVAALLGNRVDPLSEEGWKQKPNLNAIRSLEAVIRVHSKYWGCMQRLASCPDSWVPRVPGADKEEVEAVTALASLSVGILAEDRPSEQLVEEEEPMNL
The experiment can be described thus: Recombinant HDAC activity assay. In kind it is biochemical. Conditions: 2 h, read-out: % HDAC activity, Class IIa HDACs, 7.

For experiment [2], the target named is T2, recombinant HDAC6 (Homo sapiens, UniProt Q9UBN7).
T2 sequence (Q9UBN7 1-1215): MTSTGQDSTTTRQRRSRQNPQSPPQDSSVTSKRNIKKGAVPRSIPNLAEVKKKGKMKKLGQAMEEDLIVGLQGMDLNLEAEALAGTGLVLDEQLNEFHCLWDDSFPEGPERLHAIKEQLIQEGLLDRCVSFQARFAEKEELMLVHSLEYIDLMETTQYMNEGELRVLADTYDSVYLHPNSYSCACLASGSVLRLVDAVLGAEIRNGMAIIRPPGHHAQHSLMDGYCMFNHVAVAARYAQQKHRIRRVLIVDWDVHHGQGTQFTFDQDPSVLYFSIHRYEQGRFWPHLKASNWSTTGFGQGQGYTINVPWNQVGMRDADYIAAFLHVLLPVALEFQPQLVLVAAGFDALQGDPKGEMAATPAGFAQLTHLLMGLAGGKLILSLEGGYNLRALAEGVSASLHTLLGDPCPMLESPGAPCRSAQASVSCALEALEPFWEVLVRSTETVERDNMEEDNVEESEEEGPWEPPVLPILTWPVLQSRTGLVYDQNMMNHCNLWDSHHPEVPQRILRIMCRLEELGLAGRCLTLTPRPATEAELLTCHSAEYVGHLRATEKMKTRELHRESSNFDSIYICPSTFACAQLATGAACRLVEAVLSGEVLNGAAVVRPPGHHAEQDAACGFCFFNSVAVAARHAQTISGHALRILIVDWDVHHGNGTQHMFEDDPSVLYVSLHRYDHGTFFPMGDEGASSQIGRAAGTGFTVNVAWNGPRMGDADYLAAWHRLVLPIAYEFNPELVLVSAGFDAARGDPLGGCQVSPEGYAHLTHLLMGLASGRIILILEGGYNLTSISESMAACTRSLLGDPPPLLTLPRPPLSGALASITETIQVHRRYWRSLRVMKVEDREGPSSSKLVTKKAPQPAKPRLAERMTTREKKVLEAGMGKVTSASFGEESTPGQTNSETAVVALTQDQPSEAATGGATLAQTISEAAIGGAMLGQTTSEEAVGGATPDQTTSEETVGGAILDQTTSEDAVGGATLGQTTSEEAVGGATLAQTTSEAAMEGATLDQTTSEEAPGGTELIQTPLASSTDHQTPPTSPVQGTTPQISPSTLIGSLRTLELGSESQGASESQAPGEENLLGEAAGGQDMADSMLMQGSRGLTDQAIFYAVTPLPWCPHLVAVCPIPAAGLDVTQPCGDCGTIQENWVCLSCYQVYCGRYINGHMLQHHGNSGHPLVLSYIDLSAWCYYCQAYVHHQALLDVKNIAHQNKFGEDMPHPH
The experiment can be described thus: Recombinant HDAC activity assay. In kind it is biochemical. The settings on record: 2 h, read-out: % HDAC activity, Class IIb HDACs, 6.

For `Cc1cc(O)c2c(c1)C(=O)c1cc(O)cc(O)c1C2=O` [Emodin], the figures for the remaining activity at 50 µM in experiment [1] and in experiment [2] were 53.1% and 38.8%, respectively.
